Experimental data: US20120316187A1, “MOLECULAR BIOMARKERS FOR PREDICTING RESPONSE TO TYROSINE KINASE INHIBITORS IN LUNG CANCER” (PANGAEA BIOTECH, S.L., priority 2009, published 2012)
Where two headings read alike, the source gives them in different places.

Tests used:
T790M resistance mutants = settings: in vitro; cited from earlier work
[1] = system: non-small-cell lung cancer patients with EGFR mutations; settings: for TTP (months): first line treatment with erlotinib
Excerpt: The term “clinical response”, as used herein, refers to the response of the subject suffering from NSCLC to a therapy with a tyrosine kinase inhibitor. Standard criteria (Miller, et al. Cancer, 1981; 47:207-14) that can be used herewith to evaluate the response to chemotherapy include response, stabilization and progression. It can be a complete response (or complete remission) which is the disappearance of all detectable malignant disease or a partial response which is defined as approximately >50% decrease in the sum of products of the largest perpendicular diameters of one or more lesions (tumor lesions), no new lesions and no progression of any lesion. Patients achieving complete or partial response were considered “responders”, and all other patients were considered “non-responders”.
The presence of the T790M mutation was examined in 129 patients for whom pretreatment tumor tissue was available.

[2] = 81 patients, BRCA1 4.92-10.7 N = 27
[3] = 81 patients, BRCA1 >10.7 N = 27
[4] = 81 patients, BRCA1 ≦4.92 N = 27
[5] = 129 patients, patients with the T790M mutation
[6] = 129 patients, patients without the T790M mutation
[7] = patients with the T790M mutation, BRCA1 4.92-11.79
[8] = patients with the T790M mutation, BRCA1 >11.79
[9] = patients with the T790M mutation, BRCA1 ≦4.92
[10] = patients without the T790M mutation, BRCA1 4.92-11.79
[11] = patients without the T790M mutation, BRCA1 >11.79
[12] = patients without the T790M mutation, BRCA1 ≦4.92

SMILES: CC#CC(=O)Nc1ccc2ncnc(Nc3cccc(Br)c3)c2c1 [CL-387,785]
- inhibition of growth of the T790M resistance mutants (T790M resistance mutants): inhibit the growth of the T790M resistance mutants

SMILES: C#Cc1cccc(Nc2ncnc3cc(OCCOC)c(OCCOC)cc23)c1 [erlotinib, [6,7-bis(2-methoxyethoxy)-4-quinazolin-4-yl]-(3-ethynylphenyl)amine]
- median progression-free survival ([1]; 28 patients harboring the T790M mutation, high BRCA1 levels): 8 months
- median progression-free survival ([1]; 28 patients harboring the T790M mutation, intermediate BRCA1 levels): 4 months
- median progression-free survival ([1]; 28 patients harboring the T790M mutation, low BRCA1 levels): 19 months
- progression-free survival ([1]; 34 patients receiving erlotinib as first-line treatment (so in the source), high BRCA1 levels): 9 months
- progression-free survival ([1]; 34 patients receiving erlotinib as first-line treatment (so in the source), intermediate BRCA1 levels): 24 months
- progression-free survival ([1]; 34 patients receiving erlotinib as first-line treatment (so in the source), low BRCA1 levels): not reached
- progression-free survival ([1]; 47 patients receiving erlotinib as first-line treatment, high BRCA1 levels): 16 months
- progression-free survival ([1]; 47 patients receiving erlotinib as first-line treatment, intermediate BRCA1 levels): 9 months
- progression-free survival ([1]; 47 patients receiving erlotinib as first-line treatment, low BRCA1 levels): 27 months
- median progression-free survival ([1]; 53 patients without the T790M mutation, high BRCA1 levels): 12 months
- median progression-free survival ([1]; 53 patients without the T790M mutation, intermediate BRCA1 levels): not reached
- median progression-free survival ([1]; 53 patients without the T790M mutation, low BRCA1 levels): 27 months
- progression-free survival ([1]; 64 patients receiving erlotinib as second-line treatment, with the T790M mutation): 13 months
- progression-free survival ([1]; 64 patients receiving erlotinib as second-line treatment, without the T790M mutation): 18 months
- progression-free survival ([1]; 65 patients receiving erlotinib as first-line treatment, with the T790M mutation): 8 months
- progression-free survival ([1]; 65 patients receiving erlotinib as first-line treatment, without the T790M mutation): 18 months
- Complete or partial response, (%) [1, 2]: (72) %
- Complete response, (%) [1, 2]: (16) %
- Partial response, (%) [1, 2]: (56) %
- Progressive disease, (%) [1, 2]: (12) %
- Stable disease, (%) [1, 2]: (16) %
- Complete or partial response, (%) [1, 3]: (68.2) %
- Complete response, (%) [1, 3]: (9.1) %
- Partial response, (%) [1, 3]: (59.1) %
- Progressive disease, (%) [1, 3]: (9.1) %
- Stable disease, (%) [1, 3]: (22.7) %
- Complete or partial response, (%) [1, 4]: (76) %
- Complete response, (%) [1, 4]: (20) %
- Partial response, (%) [1, 4]: (56) %
- Progressive disease, (%) [1, 4]: (8) %
- Stable disease, (%) [1, 4]: (16) %
- Median progression-free survival to erlotinib ([1]; 81 patients, high BRCA1 levels): 10 months
- Median progression-free survival to erlotinib ([1]; 81 patients, intermediate BRCA1 levels): 18 months
- Overall survival ([1]; 81 patients, intermediate or high BRCA1 levels): not reached
- Median progression-free survival to erlotinib ([1]; 81 patients, low BRCA1 levels): 27 months
- Overall survival ([1]; 81 patients, low BRCA1 levels): 33 months
- Overall survival [1, 5]: 27 months
- median progression-free survival [1, 5]: 12 months
- Overall survival [1, 6]: 29 months
- median progression-free survival [1, 6]: 18 months
- Complete or partial response, (%) ([1]; All patients N = 129): (68.9) %
- Complete response, (%) ([1]; All patients N = 129): (10.3) %
- Partial response, (%) ([1]; All patients N = 129): (58.6) %
- Progressive disease, (%) ([1]; All patients N = 129): (12.9) %
- Stable disease, (%) ([1]; All patients N = 129): (18.1) %
- Complete or partial response, (%) ([1]; T790M-negative N = 84): (72.3) %
- Complete response, (%) ([1]; T790M-negative N = 84): (13.9) %
- Partial response, (%) ([1]; T790M-negative N = 84): (58.3) %
- Progressive disease, (%) ([1]; T790M-negative N = 84): (11.1) %
- Stable disease, (%) ([1]; T790M-negative N = 84): (16.7) %
- Complete or partial response, (%) ([1]; T790M-positive N = 45): (63.6) %
- Complete response, (%) ([1]; T790M-positive N = 45): (4.5) %
- Partial response, (%) ([1]; T790M-positive N = 45): (59.1) %
- Progressive disease, (%) ([1]; T790M-positive N = 45): (15.9) %
- Stable disease, (%) ([1]; T790M-positive N = 45): (20.5) %
- TTP (months) ([1]; T790M mutation No, BRCA1 levels High/Intermediate): 18 months
- TTP (months) ([1]; T790M mutation No, BRCA1 levels Low): 27 months
- TTP (months) ([1]; T790M mutation Yes, BRCA1 levels High/Intermediate): 3 months
- TTP (months) ([1]; T790M mutation Yes, BRCA1 levels Low): 27 months
- Complete or partial response, number of patients [1, 7]: 5
- Complete or partial response, share in parentheses [1, 7]: (55.6)
- Complete response, number of patients [1, 7]: 0
- Complete response, share in parentheses [1, 7]: (0)
- Partial response, number of patients [1, 7]: 5
- Partial response, share in parentheses [1, 7]: (55.6)
- Progressive disease, number of patients [1, 7]: 2
- Progressive disease, share in parentheses [1, 7]: (22.2)
- Stable disease, number of patients [1, 7]: 2
- Stable disease, share in parentheses [1, 7]: (22.2)
- Complete or partial response, number of patients [1, 8]: 7
- Complete or partial response, share in parentheses [1, 8]: (77.8)
- Complete response, number of patients [1, 8]: 1
- Complete response, share in parentheses [1, 8]: (11.1)
- Partial response, number of patients [1, 8]: 6
- Partial response, share in parentheses [1, 8]: (66.7)
- Progressive disease, number of patients [1, 8]: 1
- Progressive disease, share in parentheses [1, 8]: (11.1)
- Stable disease, number of patients [1, 8]: 1
- Stable disease, share in parentheses [1, 8]: (11.1)
- Complete or partial response, number of patients [1, 9]: 7
- Complete or partial response, share in parentheses [1, 9]: (70)
- Complete response, number of patients [1, 9]: 1
- Complete response, share in parentheses [1, 9]: (10)
- Partial response, number of patients [1, 9]: 6
- Partial response, share in parentheses [1, 9]: (60)
- Progressive disease, number of patients [1, 9]: 1
- Progressive disease, share in parentheses [1, 9]: (10)
- Stable disease, number of patients [1, 9]: 2
- Stable disease, share in parentheses [1, 9]: (20)
- Complete or partial response, number of patients [1, 10]: 13
- Complete or partial response, share in parentheses [1, 10]: (76.5)
- Complete response, number of patients [1, 10]: 4
- Complete response, share in parentheses [1, 10]: (23.5)
- Partial response, number of patients [1, 10]: 9
- Partial response, share in parentheses [1, 10]: (52.9)
- Progressive disease, number of patients [1, 10]: 1
- Progressive disease, share in parentheses [1, 10]: (5.9)
- Stable disease, share in parentheses [1, 10]: (17.6)
- Complete or partial response, number of patients [1, 11]: 7
- Complete or partial response, share in parentheses [1, 11]: (63.6)
- Complete response, number of patients [1, 11]: 1
- Complete response, share in parentheses [1, 11]: (9.1)
- Partial response, number of patients [1, 11]: 6
- Partial response, share in parentheses [1, 11]: (54.5)
- Progressive disease, number of patients [1, 11]: 1
- Progressive disease, share in parentheses [1, 11]: (9.1)
- Stable disease, share in parentheses [1, 11]: (27.3)
- Complete or partial response, number of patients [1, 12]: 13
- Complete or partial response, share in parentheses [1, 12]: (81.3)
- Complete response, number of patients [1, 12]: 4
- Complete response, share in parentheses [1, 12]: (25)
- Partial response, number of patients [1, 12]: 9
- Partial response, share in parentheses [1, 12]: (56.3)
- Progressive disease, number of patients [1, 12]: 1
- Progressive disease, share in parentheses [1, 12]: (6.3)
- Stable disease, number of patients [1, 12]: 2
- Stable disease, share in parentheses [1, 12]: (12.5)
- progression-free survival ([1]; subgroup of 48 patients with L858R, with the T790M mutation): 16 months
- progression-free survival ([1]; subgroup of 48 patients with L858R, without the T790M mutation): 15 months
- progression-free survival ([1]; subgroup of 81 patients with del 19, with the T790M mutation): 12 months
- progression-free survival ([1]; subgroup of 81 patients with del 19, without the T790M mutation): 20 months
